From patent publication US9546367B2, “siRNA compositions and methods for inhibiting gene expression in tumor initiating cells of breast cancer” (priority 2011, dated 2017)

Key:
Assay type in all cases: cell-based, human
eNOS = assay: Western blot of nitric oxide synthases after siRNA knockdown; settings: three triple-negative cell lines treated in vitro with siRNA
Experimental: (§1) In order to confirm the pathways involved in BCSC targeting, western blot analysis was conducted with siRNA knockdown and overexpression of RPL39 and MLF2 in three breast cancer cell lines (SUM159, BT549 and MDAMB231). Briefly, 30 μg of whole cell extracts were quantified and run on a 4-20% gel for 1 hr, and transferred onto nitrocellulose membranes. The primary antibodies were incubated overnight at the following dilutions eNOS (1:500), nNOS (1:500), and iNOS (1:1000) (Millipore, Bellerica, Mass., USA) followed by one-hour secondary antibody incubation, and development using chemiluminescence.

iNOS = assay: as above; settings: three triple-negative cell lines (SUM159, BT549, MDAMB231) treated in vitro with siRNA
Experimental: as §1

nNOS = assay: as above; settings: three triple-negative cell lines treated in vitro with siRNA
Experimental: as §1

SUM159 = assay: in vitro MSFE with nanoliposome/silicon particle packaged siRNA; settings: for secondary MSFE: SUM159, siRNA, Day 8, p<0.05; for primary and secondary MSFE: SUM159 incubated with MSV/siRNA
Experimental: (§2) “Claudin-low”-like human breast cancer cell lines (SUM159 and BT549) were plated in 24-well ultralow attachment plates with mammary epithelial growth medium (MEGM) (5,000 cells/well). Both cell lines were then treated with 1 μg/well/6 wells of silicon particles loaded with DOPC nanoliposomes/siRNA. The primary MSs were allowed to grow for 3 days. MFs were counted on Day 3 with a GelCount colony counter (Oxford Optronix, Oxford, UK). Mammosphere-Forming Efficiency (MSFE) was calculated by dividing the number of MSs by the number of seeded cells. In addition, established MSs were serially passaged by dissociation, and single cells were re-plated on fresh 24-well, ultra-low-attachment plates to form secondary mammospheres, which were counted after 3 days. One-way ANOVA and Tukey tests were performed. A p-value of less than 0.05 was considered significant.
(§3) To develop a more clinically relevant model, two of the identified candidates (MLF2 and RPL39L) were compared to Stat3 (positive control), and their siRNA sequences identified within the shRNA vector. These siRNAs were then packaged in nanoliposomes and tested for MSFE using the same protocol as above, except for the addition of packaged siRNA instead of lentiviral shRNA. (N.B. wherein shRNA requires a promoter and needs to be transcribed in order to function, siRNA functions by itself once incorporated into recipient cells).
(§4) To develop siRNA nanotherapeutics targeting TIC, studies have been conducted to confirm the essential roles of the candidate TIC genes. Exemplary siRNA oligonucleotides specific for STAT3, MFL2, and RPL39L were formulated into nanoliposomes, which were then loaded into porous silicon MSV particles. For in vitro assay, BT549 and SUM159 cells were incubated with MSV/siRNA, and primary and secondary MSFE was measured. […] For in vivo assessment, SCID/Beige mice were inoculated with SUM159 tumor, and treated with MDS/siRNA delivered by tail vein injection. Cells were then isolated from tumor mice 3 weeks later, and MSFE was measured. […] These studies indicate that 1) MDS/siRNA could successfully be delivered to tumor tissues effectively in vivo, 2) uptake of MDS/siRNA by TIC was efficient, and 3) MFL2 and RPL39L were essential genes for TIC.
(§5) The siRNA sequences of two candidate genes RPL39 and MLF2 were packaged in nanoliposomes and the effects on MSFE determined in vitro, as described above, using packaged siRNA instead of lentiviral shRNA.

BT549 = assay: as above; settings: for secondary MSFE: BT549, siRNA, Day 8, p<0.05; for primary and secondary MSFE: BT549 incubated with MSV/siRNA
Experimental: as §2, §3, §4, §5

Substance | eNOS (eNOS) | iNOS signaling (iNOS) | nNOS (nNOS) | secondary MSFE (SUM159) | primary and secondary MSFE (SUM159) | secondary MSFE (BT549) | primary and secondary MSFE (BT549)
RPL39 siRNA: siRNA against ribosomal protein L39-like; sense SEQ ID NO: 15 ACGATTCCTGGCCAAGAAACAA, antisense SEQ ID NO: 31 TTGTTTCTTGGCCAGGAATCGC (listed as DNA, chemistry not fully specified) | decrease | clear reduction | no changes | significantly reduced | significant reduction | significantly reduced | significant reduction
MLF2 siRNA: siRNA against myeloid leukemia factor 2; sense SEQ ID NO: 3 CCCTGATGGATCCCTTTGCTAT, antisense SEQ ID NO: 19 ATAGCAAAGGGATCCATCAGGA (packaged in nanoliposomes, chemistry not given here, further chemistry not given here) | decrease | clear reduction | no changes | significantly reduced | significant reduction | significantly reduced | significant reduction
